Results published in patent US9657015B2, “Substituted bicyclic dihydropyrimidinones and their use as inhibitors of neutrophil elastase activity” (Boehringer Ingelheim International GmbH, priority 2014, dated 2017).

Tests used:
[1] = molecular target: neutrophil elastase in human plasma (Homo sapiens (Human), UniProt P08246); experiment: Neutrophil elastase inhibitory activity in human plasma; type: biochemical; details: human plasma assay (zymosan-stimulated blood plasma), substrate 250 μM, pH 7.5
Protocol: Assay for the Determination of Neutrophil Elastase Inhibitory Activity in Human Plasma
Citrated blood from human healthy donors is mixed with zymosan suspension and incubated at room temperature. This leads to the stimulation of neutrophils and the release of neutrophil elastase into the plasma. The stimulated blood is centrifuged to generate the neutrophil elastase enriched plasma.
Preparation of Zymosan Working Solution:
Various concentrations of the neutrophil elastase inhibitor are incubated with plasma. […] A dose response curve is generated to calculate the EC50 of the inhibitor.

[2] = molecular target: Human neutrophil elastase (Homo sapiens (Human), UniProt P08246); experiment: Human Neutrophil Elastase Assay; type: biochemical; details: substrate MeOSuc-Ala-Ala-Pro-Val-AMC 250 μM, pH 7.5, room temperature
Chain of Human neutrophil elastase (P08246 30-247): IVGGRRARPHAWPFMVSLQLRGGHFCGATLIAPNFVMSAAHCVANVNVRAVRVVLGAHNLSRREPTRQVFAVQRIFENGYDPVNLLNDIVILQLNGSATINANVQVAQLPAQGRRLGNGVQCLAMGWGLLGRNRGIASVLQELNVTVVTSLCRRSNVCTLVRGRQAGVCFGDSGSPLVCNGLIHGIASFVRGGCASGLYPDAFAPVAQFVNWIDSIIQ

Chain of neutrophil elastase in human plasma (P08246 30-247): as above

SMILES | IC50 [1] [nM] | IC50 [2] [nM]
N#Cc1ccc(C2NC(=O)N(c3cccc(C(F)(F)F)c3)C3=C2C(=O)NCC3)cc1 (racemic) [Example 1, 4-(2,5-Dioxo-1-(3-(trifluoromethyl)phenyl)-1,2,3,4,5,6,7,8-octahydropyrido[4,3-d]-pyrimidin-4-yl)benzonitrile] | 11 | 5.7
N#Cc1ccc(C2NC(=O)N(c3cccc(C(F)F)c3)C3=C2C(=O)NCC3)cc1 (racemic) [Example 2, 4-(1-(3-(Difluoromethyl)phenyl)-2,5-dioxo-1,2,3,4,5,6,7,8-octahydropyrido[4,3-d]-pyrimidin-4-yl)benzonitrile] | 8.2 | 6.9
CN1CCC2=C(C1=O)C(c1ccc(C#N)cc1)NC(=O)N2c1cccc(C(F)(F)F)c1 (racemic) [Example 4, 4-(6-Methyl-2,5-dioxo-1-(3-(trifluoromethyl)phenyl)-1,2,3,4,5,6,7,8-octahydropyrido[4,3-d]pyrimidin-4-yl)benzonitrile] | 2.9 | 5.8
CNC(=O)CN1C(=O)N(c2cccc(C(F)(F)F)c2)C2=C(C(=O)NCC2)C1c1ccc(C#N)cc1 (racemic) [Example 12, 2-(4-(4-Cyanophenyl)-2,5-dioxo-1-(3-(trifluoromethyl)phenyl)-1,2,5,6,7,8-hexahydropyrido[4,3-d]pyrimidin-3(4H)-yl)-N-methylacetamide] | 2.8 | 2
CN1C(=O)N(c2cccc(C(F)(F)F)c2)C2=C(C(=O)NCC2)C1c1ccc(C#N)cc1-c1cnco1 (racemic) [Example 25, 4-{3-Methyl-2,5-dioxo-1-[3-(trifluoromethyl)phenyl]-1H,2H,3H,4H,5H,6H,7H,8H-pyrido[4,3-d]pyrimidin-4-yl}-3-(1,3-oxazol-5-yl)benzonitrile] | 1.5 | < 1
CN1C(=O)N(c2cccc(C(F)(F)F)c2)C2=C(C(=O)NCC2)C1c1ccc(C#N)cc1-c1cnn(C)c1 (racemic) [Example 26, 3-(1-Methyl-1H-pyrazol-4-yl)-4-{3-methyl-2,5-dioxo-1-[3-(trifluoromethyl)phenyl]-1H,2H,3H,4H,5H,6H,7H,8H-pyrido[4,3-d]pyrimidin-4-yl}benzonitrile] | 1.4 | < 1
CN1C(=O)N(c2cccc(C(F)(F)F)c2)C2=C(C(=O)NCC2)C1c1ccc(C#N)cc1CO (racemic) [Example 29, 3-(Hydroxymethyl)-4-{3-methyl-2,5-dioxo-1-[3-(trifluoromethyl)phenyl]-1H,2H,3H,4H,5H,6H,7H,8H-pyrido[4,3-d]pyrimidin-4-yl}benzonitrile] | < 1 | < 1
N#Cc1ccc([C@@H]2NC(=O)N(c3cccc(C(F)(F)F)c3)C3=C2C(=O)NCC3)cc1 [Example 1B, (S)-4-(2,5-Dioxo-1-(3-(trifluoromethyl)phenyl)-1,2,3,4,5,6,7,8-octahydropyrido[4,3-d]-pyrimidin-4-yl)benzonitrile] |  | 940
N#Cc1ccc([C@@H]2NC(=O)N(c3cccc(C(F)F)c3)C3=C2C(=O)NCC3)cc1 [Example 2B, (S)-4-(1-(3-(Difluoromethyl)phenyl)-2,5-dioxo-1,2,3,4,5,6,7,8-octahydropyrido[4,3-d]-pyrimidin-4-yl)benzonitrile] |  | > 10000
CC1(C)CC2=C(C(=O)N1)C(c1ccc(C#N)cc1)NC(=O)N2c1cccc(C(F)(F)F)c1 (centres unmarked) [Example 3, 4-(7,7-Dimethyl-2,5-dioxo-1-(3-(trifluoromethyl)phenyl)-1,2,3,4,5,6,7,8-octahydropyrido[4,3-d]pyrimidin-4-yl)benzonitrile] | 13 | 9.8
CN1CCC2=C(C1=O)[C@H](c1ccc(C#N)cc1)NC(=O)N2c1cccc(C(F)(F)F)c1 [Example 4B, (S)-4-(6-Methyl-2,5-dioxo-1-(3-(trifluoromethyl)phenyl)-1,2,3,4,5,6,7,8-octahydropyrido[4,3-d]pyrimidin-4-yl)benzonitrile] |  | 1900
CN1C(=O)N(c2cccc(C(F)(F)F)c2)C2=C(C(=O)NCC2)C1c1ccc(C#N)cc1 (centres unmarked) [Example 5, 4-(3-Methyl-2,5-dioxo-1-(3-(trifluoromethyl)phenyl)-1,2,3,4,5,6,7,8-octahydropyrido-[4,3-d]pyrimidin-4-yl)benzonitrile] | 1.1 | 1.9
CN1CCC2=C(C1=O)[C@@H](c1ccc(C#N)cc1)N(C)C(=O)N2c1cccc(C(F)(F)F)c1 [Example 7, (R)-4-(3,6-Dimethyl-2,5-dioxo-1-(3-(trifluoromethyl)phenyl)-1,2,3,4,5,6,7,8-octahydropyrido[4,3-d]pyrimidin-4-yl)benzonitrile] | 2 | 1.2
CN1C(=O)N(c2cccc(C(F)F)c2)C2=C(C(=O)NCC2)[C@@H]1c1ccc(C#N)cc1 [Example 8B, (S)-4-(1-(3-(Difluoromethyl)phenyl)-3-methyl-2,5-dioxo-1,2,3,4,5,6,7,8-octahydropyrido[4,3-d]pyrimidin-4-yl)benzonitrile] |  | 36
N#Cc1ccc(C2C3=C(CCNC3=O)N(c3cccc(C(F)(F)F)c3)C(=O)N2CC(=O)O)cc1 (centres unmarked) [Example 10, 2-(4-(4-Cyanophenyl)-2,5-dioxo-1-(3-(trifluoromethyl)phenyl)-1,2,5,6,7,8-hexahydropyrido[4,3-d]pyrimidin-3(4H)-yl)acetic acid] | 2.4 | 2.7
N#Cc1ccc(C2C3=C(CCNC3=O)N(c3cccc(C(F)(F)F)c3)C(=O)N2CC(N)=O)cc1 (centres unmarked) [Example 11, 2-(4-(4-Cyanophenyl)-2,5-dioxo-1-(3-(trifluoromethyl)phenyl)-1,2,5,6,7,8-hexahydropyrido[4,3-d]pyrimidin-3(4H)-yl)acetamide] | 2.9 | 3

SMILES | IC50 [1] [nM] | IC50 [2] [nM]
CN(C)C(=O)CN1C(=O)N(c2cccc(C(F)(F)F)c2)C2=C(C(=O)NCC2)C1c1ccc(C#N)cc1 (centres unmarked) [Example 12.1] | < 1 | 1.1
CCNC(=O)CN1C(=O)N(c2cccc(C(F)(F)F)c2)C2=C(C(=O)NCC2)C1c1ccc(C#N)cc1 (centres unmarked) [Example 12.2] | 2.5 | 2.4
N#Cc1ccc(C2C3=C(CCNC3=O)N(c3cccc(C(F)(F)F)c3)C(=O)N2CC(=O)NCCO)cc1 (centres unmarked) [Example 12.3] | 3.6 | 2.1
COCCNC(=O)CN1C(=O)N(c2cccc(C(F)(F)F)c2)C2=C(C(=O)NCC2)C1c1ccc(C#N)cc1 (centres unmarked) [Example 12.4] | 5.1 | 2
N#Cc1ccc(C2C3=C(CCNC3=O)N(c3cccc(C(F)(F)F)c3)C(=O)N2CC(=O)N2CC3CC3C2)cc1 (centres unmarked) [Example 12.5] | < 1 | < 1
N#Cc1ccc(C2C3=C(CCNC3=O)N(c3cccc(C(F)(F)F)c3)C(=O)N2CC(=O)N2CCCCC2)cc1 (centres unmarked) [Example 12.6] | < 1 | < 1
N#Cc1ccc(C2C3=C(CCNC3=O)N(c3cccc(C(F)(F)F)c3)C(=O)N2CC(=O)N2CCOCC2)cc1 (centres unmarked) [Example 12.7] | < 1 | < 1
N#Cc1ccc(C2C3=C(CCNC3=O)N(c3cccc(C(F)(F)F)c3)C(=O)N2CC(=O)N2CCC(F)C2)cc1 (centres unmarked) [Example 12.8] | 1.1 | < 1
Cn1ncc2c1CN(C(=O)CN1C(=O)N(c3cccc(C(F)(F)F)c3)C3=C(C(=O)NCC3)C1c1ccc(C#N)cc1)C2 (centres unmarked) [Example 12.9] | 1 | < 1
CNC(=O)CN1C(=O)N(c2cccc(C(F)(F)F)c2)C2=C(C(=O)NCC2)[C@H]1c1ccc(C#N)cc1 [Example 12A, (R)-2-(4-(4-Cyanophenyl)-2,5-dioxo-1-(3-(trifluoromethyl)phenyl)-1,2,5,6,7,8-hexahydropyrido[4,3-d]pyrimidin-3(4H)-yl)-N-methylacetamide] | < 1 | 1.3
CNC(=O)CN1C(=O)N(c2cccc(C(F)(F)F)c2)C2=C(C(=O)NCC2)[C@@H]1c1ccc(C#N)cc1 [Example 12B, (S)-2-(4-(4-Cyanophenyl)-2,5-dioxo-1-(3-(trifluoromethyl)phenyl)-1,2,5,6,7,8-hexahydropyrido[4,3-d]pyrimidin-3(4H)-yl)-N-methylacetamide] |  | 1200
CC1(C)CC2=C(C(=O)N1)C(c1ccc(C#N)cc1)N(CC(=O)O)C(=O)N2c1cccc(C(F)(F)F)c1 (centres unmarked) [Example 13, 2-(4-(4-cyanophenyl)-7,7-dimethyl-2,5-dioxo-1-(3-(trifluoromethyl)phenyl)-1,2,5,6,7,8-hexahydropyrido[4,3-d]pyrimidin-3(4H)-yl)acetic acid] | 2.2 | 4.3
CN1CCC2=C(C1=O)C(c1ccc(C#N)cc1)N(CC(N)=O)C(=O)N2c1cccc(C(F)(F)F)c1 (centres unmarked) [Example 14, 2-(4-(4-Cyanophenyl)-6-methyl-2,5-dioxo-1-(3-(trifluoromethyl)phenyl)-1,2,5,6,7,8-hexahydropyrido[4,3-d]pyrimidin-3(4H)-yl)acetamide] | 14 | 3
CN1C(=O)N(c2cccc(C(F)(F)F)c2)C2=C(C(=O)NCC2)[C@@H]1c1ccc(C#N)cc1-c1cnco1 [Example 30B, 4-[(4S)-3-Methyl-2,5-dioxo-1-[3-(trifluoromethyl)phenyl]-1H,2H,3H,4H,5H,6H,7H,8H-pyrido[4,3-d]pyrimidin-4-yl]-3-(1,3-oxazol-5-yl)benzonitrile] |  | 12
CN1C(=O)N(c2cccc(C(F)(F)F)c2)C2=C(C(=O)NCC2)[C@@H]1c1ccc(C#N)cc1-c1cnn(C)c1 [Example 31B, 3-(1-Methyl-1H-pyrazol-4-yl)-4-[(4S)-3-methyl-2,5-dioxo-1-[3-(trifluoromethyl)-phenyl]-1H,2H,3H,4H,5H,6H,7H,8H-pyrido[4,3-d]pyrimidin-4-yl]benzonitrile] |  | 17
CN1C(=O)N(c2cccc(C(F)(F)F)c2)C2=C(C(=O)NCC2)[C@@H]1c1ccc(C#N)cc1CO [Example 32B, 3-(Hydroxymethyl)-4-[(4S)-3-methyl-2,5-dioxo-1-[3-(trifluoromethyl)phenyl]-1H,2H,3H,4H,5H,6H,7H,8H-pyrido[4,3-d]pyrimidin-4-yl]benzonitrile] |  | 39
